Laboratory results taken from patent US20080306057A1, “P13K Inhibitors for the Treatment of Endometriosis” (LABORATORIES SERONO SA, priority 2005, published 2008).
Like-named read-outs stand apart in the source and are kept apart here. Values belong to the molecule of their own block, whether it stands above or below them.

Assays:
[1] = test system: endometriosis; conditions: cited from earlier work
[2] = test system: endometriosis-like foci; experiment: Rat model of endometriosis (autologous uterine horn fragment transplant); assay type: in vivo
Method: Endometriosis was induced in rats as described earlier (D'Antonio et al 2000). In brief, autologous uterine horn fragment was transplanted onto the inner surface of the abdominal wall in rat. Three weeks following transplantation, the size and the viability of the engrafted tissue was measured. One week after the confirmation of the tissue attachment, treatments were started. The control group received the vehicle, the PI3K inhibitor-1 was administered orally (po) at a single dose of 30 mg/kg per day. Treatment with the inhibitor was conducted for nine days, animals were anaesthetized 2 hr following the last treatment and blood samples were collected. Surface area of the endometriosis-like foci was measured. The endometriotic-like foci was removed for histology.

[3] = test system: endometriotic cells (12Z cells); experiment: Induction of cell death in endometriotic cells, crystal violet staining; assay type: cell-based, human; conditions: for EC50: Homo sapiens, 12Z, crystal violet staining
Source text: It is well established that the glandular and stromal tissues from the eutopic endometrium implant in ectopic sites leading to endometriosis. Survival of the ectopic implants is due to a reduced cell death (apoptosis) of these implants, and is presumed to be due to increased expression of survival cell signaling pathways. Proteins or specific small molecule compounds that induce target-specific cell-death of ectopic endometriotic cells without affecting eutopic endometrium or other normal cells could be used as a treatment for eliminating endometriosis. In this regard, we examined the effect of PI3K inhibitor-1 (5-Quinoxalin-6-ylmethylene-thiazolidine-2,4-dione) on its ability to induce cell death of endometriotic cells (12Z cells), an immortalized human epithelial endometriotic cell (Zeitvogel et al. 2001). These cells grow in culture and secrete cytokines in response to TNFα that have been reported to be elevated in the peritoneal fluid of endometriotic patients. The 12Z cells were treated with PI3K inhibitor-1 for 24 h and cell death was measured by crystal violet staining. Since the peritoneal fluids contain elevated concentrations of TNFα, the inhibitor was also tested in the presence of this cytokine. Dead cells get detached from the tissue culture plate and washed away during staining with crystal violet. The intensity of the color will determine the extent of live cells present in the plate. […] TNFα alone had no effect of cell viability (data not shown).

[4] = test system: endometriotic lesions from human endometrial tissue; experiment: Xenograft nude mouse model of endometriosis; assay type: in vivo, nude mice
Method: Human endometrial tissue was injected in ovarectomized nude mice to establish the disease (Bruner-Tran et al. 2002). In brief, endometrial biopsies obtained from normal volunteers or from endometriotic patients were cut into small pieces and cultured in the presence of estradiol for 24 h. Treated tissues, were injected either subcutaneously or intraperitoneally into ovarectomized nude mice with estradiol implant. Within 2-4 days of injection, ectopic endometriotic lesions develop in animals. Treatment with either progesterone or PI3K inhibitor-1 was started 10 days following the injection of tissue. The compound was administered at a dose of 10 mg/kg and 30 mg/kg/animal for 28 days. […] Following the completion of treatment, animals were sacrificed, lesions developed from the transplanted tissue found in both subcutaneous and intraperitoneal sites, were measured (both size and number).

[5] = 10 mg/kg × 28 days, listed as PI3K inhibitor
[6] = 30 mg/kg × 28 days, listed as PI3K inhibitor

Molecule: C#C[C@]1(O)CC[C@H]2[C@@H]3CCC4=Cc5oncc5C[C@]4(C)[C@H]3CC[C@@]21C [Danazol]
Recurrence rate ([1]; after up to 4 years): 40%-50 | Patients suffering from pain with improved symptoms ([1]; endometriosis patients): 66-100%

Molecule: antide [reference compound]
Regression of established endometriotic lesions ([2]; for comparison, data not shown): 94%

Effect on the uterine weight and size of the animals ([4]; 10 mg/kg and 30 mg/kg for 28 days): no effect
Molecule: O=C1NC(=O)C(=Cc2ccc3nccnc3c2)S1 [PI3K inhibitor-1, 5-Quinoxalin-6-ylmethylene-thiazolidine-2,4-dione]
Extent of cell death induced, with versus without TNFα ([3]; 24 h): greater in the presence of TNFα | Amount of live cells in culture ([3]; 24 h, either alone or in the presence of TNFα): reduce the amount of live cells in culture | EC50 ([3]; in the presence of 15 ng/ml of TNFα, 24 h, read-out: Concentration required to induce 50% cell death (EC50), +TNFα): 6.4 µM | EC50 ([3]; inhibitor alone, 24 h, read-out: Concentration required to induce 50% cell death (EC50), Alone): > 10 µM | Lesion (% Progesterone) Compared to progesterone treated group, decrease ([4]; 10 mg/kg × 28 days): 53% Decrease | Lesion size, decrease ([4]; 10 mg/kg × 28 days): 10% Decrease | Lesion (% Progesterone) Compared to progesterone treated group, decrease [4, 5]: 53% | Lesion size, decrease [4, 5]: 10% | Lesion (% Progesterone) Compared to progesterone treated group, decrease ([4]; 30 mg/kg × 28 days): 80% Decrease | Lesion size, decrease ([4]; 30 mg/kg × 28 days): 30% Decrease | Lesion (% Progesterone) Compared to progesterone treated group, decrease [4, 6]: 80% | Lesion size, decrease [4, 6]: 30% | Regression of established endometriotic lesions ([2]; 30 mg/kg per day po, nine days): 64%

Molecule: TNFα
Cell viability ([3]; TNFα alone, data not shown): no effect
